Results: article PMC3887211, “Automethylation Activities within the Mixed Lineage Leukemia-1 (MLL1) Core Complex Reveal Evidence Supporting a “Two-active Site” Model for Multiple Histone H3 Lysine 4 Methylation” (The Journal of Biological Chemistry, 2013)

What was measured:
[1] = target: T1, MLL1 SET domain (MLL^3745) (Homo sapiens, UniProt Q03164); assay: [3H]methyl transfer to H3 peptide, streptavidin pull-down, liquid scintillation counting; type: biochemical; settings: histone H3 peptide (1-20)-GGK-biotin 500 μM fixed; 7 μM MLL1; 0-100 μM labelled compound; assay buffer pH 8.5, 15 °C; construct of MLL1 not stated for this assay; read-out: apparent Km
T1 construct: gene KMT2A; C-terminal Win motif + SET domain, residues 3745-3969, 26 kDa, expressed in E. coli as GST fusion
T1 sequence (Q03164 3745-3969): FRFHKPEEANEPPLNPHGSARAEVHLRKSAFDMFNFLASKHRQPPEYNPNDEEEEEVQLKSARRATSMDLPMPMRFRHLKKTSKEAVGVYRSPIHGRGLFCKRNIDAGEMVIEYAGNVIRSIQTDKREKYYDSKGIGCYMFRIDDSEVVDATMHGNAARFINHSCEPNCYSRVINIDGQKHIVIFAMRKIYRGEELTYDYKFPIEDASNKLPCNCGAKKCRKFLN

MBP-Trithorax SET domain = target: T2, MBP-Trithorax SET domain (Drosophila melanogaster, UniProt P20659); assay: [3H]methyl transfer (automethylation and H3 methylation), SDS-PAGE fluorography; type: biochemical; settings: labelled compound; with or without histone H3 peptide (1-20); pH 8.5, 15 °C
T2 construct: gene trx; SET domain as MBP fusion from E. coli
T2 sequence (P20659 3588-3726 limits assumed): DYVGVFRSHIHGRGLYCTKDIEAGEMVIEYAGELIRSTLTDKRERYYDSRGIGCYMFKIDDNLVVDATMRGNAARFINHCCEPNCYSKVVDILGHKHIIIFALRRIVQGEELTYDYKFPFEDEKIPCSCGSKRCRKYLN

[2] = target: T3, MLL1 core complex (MWRAD) (Homo sapiens, UniProt Q03164); settings: labelled compound; no histone H3; pH 8.5, 15 °C; intra-complex methylation of Ash2L by MLL1 SET domain
T3 construct: gene KMT2A
T3 sequence (Q9C005 whole entry, the tested form may be a part): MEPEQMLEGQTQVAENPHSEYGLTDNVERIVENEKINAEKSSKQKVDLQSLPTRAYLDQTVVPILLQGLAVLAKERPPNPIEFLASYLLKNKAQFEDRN
T3 sequence (Q9UBL3 whole entry, further chain, the tested form may be a part): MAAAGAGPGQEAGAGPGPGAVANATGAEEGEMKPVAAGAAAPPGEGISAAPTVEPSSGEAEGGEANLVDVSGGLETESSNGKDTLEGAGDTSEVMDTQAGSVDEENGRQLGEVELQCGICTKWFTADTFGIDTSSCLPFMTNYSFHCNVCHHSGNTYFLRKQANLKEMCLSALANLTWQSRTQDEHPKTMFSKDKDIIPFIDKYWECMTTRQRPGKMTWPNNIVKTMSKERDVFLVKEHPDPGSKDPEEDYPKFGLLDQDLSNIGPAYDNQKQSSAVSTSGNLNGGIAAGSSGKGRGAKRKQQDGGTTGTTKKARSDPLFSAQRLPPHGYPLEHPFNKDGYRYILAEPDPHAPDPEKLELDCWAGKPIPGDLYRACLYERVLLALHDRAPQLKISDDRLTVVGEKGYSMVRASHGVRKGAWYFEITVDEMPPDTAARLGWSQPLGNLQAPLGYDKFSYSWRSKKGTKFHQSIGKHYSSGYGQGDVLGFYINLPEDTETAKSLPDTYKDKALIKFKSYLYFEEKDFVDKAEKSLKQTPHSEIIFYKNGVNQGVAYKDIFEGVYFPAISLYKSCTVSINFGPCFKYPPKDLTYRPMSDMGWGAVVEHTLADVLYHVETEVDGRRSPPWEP
T3 sequence (Q03164 3745-3969): as the sequence (Q03164 3745-3969) above
T3 sequence (Q15291 whole entry, further chain, the tested form may be a part): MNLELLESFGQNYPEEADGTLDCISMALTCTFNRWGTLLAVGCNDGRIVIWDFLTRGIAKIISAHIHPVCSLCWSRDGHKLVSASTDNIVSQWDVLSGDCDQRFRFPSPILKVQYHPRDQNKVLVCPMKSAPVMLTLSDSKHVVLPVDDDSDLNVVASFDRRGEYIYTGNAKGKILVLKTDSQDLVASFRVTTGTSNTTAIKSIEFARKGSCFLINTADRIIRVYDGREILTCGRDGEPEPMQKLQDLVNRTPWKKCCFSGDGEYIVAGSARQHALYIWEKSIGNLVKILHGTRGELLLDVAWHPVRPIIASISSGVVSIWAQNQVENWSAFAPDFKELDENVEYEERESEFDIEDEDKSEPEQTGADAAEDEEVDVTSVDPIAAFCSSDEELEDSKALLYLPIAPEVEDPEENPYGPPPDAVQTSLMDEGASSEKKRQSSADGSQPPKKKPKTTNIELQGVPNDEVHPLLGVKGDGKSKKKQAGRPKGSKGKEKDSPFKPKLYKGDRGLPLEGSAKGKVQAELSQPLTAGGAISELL

WRAD = target: T4, WRAD (Homo sapiens, UniProt Q15291+Q9UBL3); settings: labelled compound, no MLL1
T4 construct: gene ASH2L
T4 sequence (Q9C005 whole entry): as the sequence (Q9C005 whole entry, the tested form may be a part) above
T4 sequence (Q15291 whole entry): as the sequence (Q15291 whole entry, further chain, the tested form may be a part) above
T4 sequence (Q9UBL3 whole entry): as the sequence (Q9UBL3 whole entry, further chain, the tested form may be a part) above

In the case of `C[S+](CC[C@H](N)C(=O)O)C[C@H]1O[C@@H](n2cnc3c(N)ncnc32)[C@H](O)[C@@H]1O` (stereo partly shown) [AdoMet], the Km [1] is reported as 10.4 ± 3.1 µM, the “[3H]methyl transfer (automethylation and H3 methylation), SDS-PAGE fluorography” value (MBP-Trithorax SET domain) is reported as “MBP-Trithorax SET domain is enzymatically active and undergoes automethylation in the absence of histone H3” and the “[3H]methyl transfer to Ash2L, SDS-PAGE fluorography” value [2] is reported as “Ash2L methylation is dependent on the catalytic activity of the MLL1 SET domain”. The “[3H]methyl transfer to histone H3 peptide, SDS-PAGE fluorography” value (WRAD) was “despite significant histone H3 methylation by WRAD, no Ash2L methylation was observed”.
